Entries after “also recorded” stand apart in the source; their conditions may differ.
Columns and labels:
MRSA = assay: Kill or inhibit growth/proliferation; morphology, biofilm and growth disruption (Tables 5, 6); format: cell-based, Methicillin-resistant Staphylococcus aureus; design: key: A: Peptide aggregates; B: Less hyphal formation; Clumps; Diffuse clumps and small polyps; F: Diffuse growth; H: Thin; I: Growth inhibition; Microcolony formation; Rippled; Small polyps; Thick; W: Halo formation on top, microlonies on bottom; note: test concentration or dose not given here
S. epidermidis = assay: as above; format: cell-based, Staphylococcus epidermidis; design: key: A: Peptide aggregates; B: Less hyphal formation; Clumps; Diffuse clumps and small polyps; F: Diffuse growth; H: Thin; I: Growth inhibition; Microcolony formation; Rippled; Small polyps; Thick; W: Halo formation on top, microlonies on bottom
S. pneumoniae = assay: as above; format: cell-based, Streptococcus pneumoniae; design: key: A: Peptide aggregates; B: Less hyphal formation; Clumps; Diffuse clumps and small polyps; F: Diffuse growth; H: Thin; I: Growth inhibition; Microcolony formation; Rippled; Small polyps; Thick; W: Halo formation on top, microlonies on bottom
E. coli = assay: as above; format: cell-based, Escherichia coli; design: key: A: Peptide aggregates; B: Less hyphal formation; Clumps; Diffuse clumps and small polyps; F: Diffuse growth; H: Thin; I: Growth inhibition; Microcolony formation; Rippled; Small polyps; Thick; W: Halo formation on top, microlonies on bottom
microorganisms = assay: Peptides having multiple activities (targeting/binding, antimicrobial, growth or phenotype altering)
Source text: In certain embodiments, peptides described herein can have multiple activities. Thus for example, a peptide can have both binding/targeting activity and antimicrobial activity. Such peptides can be used, e.g., in a chimeric construct, for any or all of these properties. Thus, for example, a peptide designated “B” in Table 8 can be used as a targeting peptide. If it is also designated G or M it can also be used for antimicrobial activity.

[1] = test system: microorganisms (e.g., bacteria, yeasts, fungi); assay: Targeting peptide binding to target microorganisms (Table 3); details: microorganism(s) the targeting peptide binds, preferably 1x PBS
[2] = binding in aqueous buffers depending on peptide solubility
[3] = peptide binding conducted in aqueous buffers varied by peptide solubility
Throughout, for Organism, effect: test concentration or dose not given here.

Substance	Organism, effect (MRSA)	Organism, effect (S. epidermidis)	Organism, effect (S. pneumoniae)	Organism, effect (E. coli)	Activities (microorganisms)	Target(s) [1, 2]	Target(s) [1, 3]
PF-178: peptide having multiple activities (EVYSSPTNNVAITVQNN; Peptide with targeting and/or antimicrobial activity)	MRSA (M)	S. epidermidis (D)	S. pneumoniae (D)	E. coli (C)	G B		
PF-350: peptide having multiple activities (LAVILRAIVY; Peptide with targeting and/or antimicrobial activity)	MRSA (C)	S. epidermidis (C)		E. coli (C)	G B	S. epidermidis; also recorded: E. coli; also recorded: E. faecalis; also recorded: C. jeikeium; also recorded: C. jejuni	
PF-360: peptide having multiple activities (chain 1 MEQKVKVIFVPRSKPDNQLKTFVSAVLFKA; chain 2 MEQKVKVIFVPRSKPDNQLKTFVSAVLFKA; Peptide with targeting and/or antimicrobial activity)	MRSA (H)	S. epidermidis (S)		E. coli (C)	G B	S. epidermidis; also recorded: B. subtilis; also recorded: E. coli; also recorded: P. aeruginosa; also recorded: C. albicans; also recorded: E. faecalis; also recorded: C. jeikeium; also recorded: C. jejuni	
PF-362: peptide having multiple activities (chain 1 NIERILKEKVWMIRCVE; chain 2 NIERILKEKVWMIRCVE; Peptide with targeting and/or antimicrobial activity)	MRSA (C)			E. coli (C)	G B	S. epidermidis; also recorded: E. coli; also recorded: P. aeruginosa; also recorded: C. albicans; also recorded: E. faecalis; also recorded: C. jejuni	
PF-370: peptide having multiple activities (chain 1 VIFLHKESGNLKEIFY; chain 2 VIFLHKESGNLKEIFY; Peptide with targeting and/or antimicrobial activity)	MRSA (C)	S. epidermidis (C)		E. coli (R)	G B	S. epidermidis; also recorded: E. coli; also recorded: P. aeruginosa; also recorded: E. faecalis; also recorded: C. jejuni	
PF-383: peptide having multiple activities (chain 1 WSEIEINTKQSN; chain 2 WSEIEINTKQSN; Peptide with targeting and/or antimicrobial activity)		S. epidermidis (C)		E. coli (R)	G B	S. epidermidis; also recorded: B. subtilis; also recorded: B. fragilis; also recorded: E. coli; also recorded: C. jejuni	
PF-385: peptide having multiple activities (chain 1 MIKKSILKIKYYVPVLISLTLILSA; chain 2 MIKKSILKIKYYVPVLISLTLILSA; Peptide with targeting and/or antimicrobial activity)				E. coli (A)	G B	S. epidermidis	E. coli; also recorded: P. aeruginosa; also recorded: C. albicans; also recorded: E. faecalis
PF-395: peptide having multiple activities (YCVPLGNMGNMNNKIW; Peptide with targeting and/or antimicrobial activity)	MRSA (C)	S. epidermidis (C)		E. coli (R)	G B		S. epidermidis; also recorded: E. coli; also recorded: P. aeruginosa; also recorded: S. pneumoniae; also recorded: E. faecalis; also recorded: C. jeikeium; also recorded: C. jejuni
PF-403: peptide having multiple activities (LLSTEQLLKYYDGETFDGFQLPSNE; Peptide with targeting and/or antimicrobial activity)	MRSA (M)	S. epidermidis (M)		E. coli (R)	G B		E. coli; also recorded: P. aeruginosa; also recorded: S. pneumoniae; also recorded: E. faecalis; also recorded: C. jeikeium; also recorded: C. jejuni
PF-413: peptide having multiple activities (TFAGSIKIGVPDLVHVTFNCKR; Peptide with targeting and/or antimicrobial activity)	MRSA (C)	S. epidermidis (C)		E. coli (S)	G B		P. aeruginosa; also recorded: C. albicans; also recorded: C. jejuni
PF-443: peptide having multiple activities (chain 1 KLLYFFNYFENLQQVHLLVQL; chain 2 KLLYFFNYFENLQQVHLLVQL; Peptide with targeting and/or antimicrobial activity)	MRSA (C)		S. pneumoniae (C)	E. coli (R)	G B		
PF-453: peptide having multiple activities (chain 1 IIQDIAHAFGY; chain 2 IIQDIAHAFGY; Peptide with targeting and/or antimicrobial activity)	MRSA (C)	S. epidermidis (C)	S. pneumoniae (C)	E. coli (C)	G B		M. luteus; also recorded: E. coli; also recorded: P. aeruginosa; also recorded: S. pneumoniae; also recorded: E. faecalis; also recorded: C. jeikeium; also recorded: C. jejuni
PF-478: peptide having multiple activities (chain 1 HLFILKSHLKPFPPFRYTYD; chain 2 HLFILKSHLKPFPPFRYTYD; Peptide with targeting and/or antimicrobial activity)	MRSA (H)	S. epidermidis (C)	S. pneumoniae (C)	E. coli (C)	G B		
PF-540: peptide having multiple activities (chain 1 KSILILIKVIFIGQTTIIL; chain 2 KSILILIKVIFIGQTTIIL; Peptide with targeting and/or antimicrobial activity)	MRSA (H)	S. epidermidis (H)	S. pneumoniae (R)	E. coli (R)	G B		C. albicans
PF-541 (RRNLNSPNIKTRKRALKIIKQHQRSK; Peptide with targeting and/or antimicrobial activity)			S. pneumoniae (H)	E. coli (H)			
PF-619: peptide having multiple activities (WSRVPGHSDTGWKVWHRW; Peptide with targeting and/or antimicrobial activity)	MRSA (M)	S. epidermidis (M)	S. pneumoniae (C)	E. coli (C)	G B		
